Experimental data published in ChEMBL document CHEMBL3112450, “Synthesis and in vitro antitumor evaluation of primary amine substituted quinazoline linked benzimidazole” (Bioorg Med Chem Lett, 2014).

Legend:
Assay type in all cases: functional
UACC-62 = assay: Cytotoxicity against human UACC62 cells assessed as cell growth at 10^-5 M after 48 hrs by SRB assay; conditions: UACC-62, 48 h, read-out: Activity
MDA-MB-468 = assay: Cytotoxicity against human MDA-MB-468 cells assessed as cell growth at 10^-5 M after 48 hrs by SRB assay; conditions: MDA-MB-468, 48 h, read-out: Activity
A498 = assay: Cytotoxicity against human A498 cells assessed as cell growth at 10^-5 M after 48 hrs by SRB assay; conditions: A498, 48 h, read-out: Activity
LOX IMVI = assay: Cytotoxicity against human LOXIMVI cells assessed as cell growth at 10^-5 M after 48 hrs by SRB assay; conditions: read-out: Activity
NCI-H322M = assay: Cytotoxicity against human NCI-H322M cells assessed as cell growth at 10^-5 M after 48 hrs by SRB assay; conditions: read-out: Activity
RXF 393 = assay: Cytotoxicity against human RXF393 cells assessed as cell growth at 10^-5 M after 48 hrs by SRB assay; conditions: RXF 393, 48 h, read-out: Activity
BT-549 = assay: Cytotoxicity against human BT549 cells assessed as cell growth at 10^-5 M after 48 hrs by SRB assay; conditions: BT-549, 48 h, read-out: Activity
[1] = Cytotoxicity against human NCI-ADR-RES cells assessed as cell growth at 10^-5 M after 48 hrs by SRB assay; conditions: read-out: Activity
SF-539 = assay: Cytotoxicity against human SF539 cells assessed as cell growth at 10^-5 M after 48 hrs by SRB assay; conditions: SF-539, 48 h, read-out: Activity
HOP-92 = assay: Cytotoxicity against human HOP92 cells assessed as cell growth at 10^-5 M after 48 hrs by SRB assay; conditions: HOP-92, 48 h, read-out: Activity
OVCAR-3 = assay: Cytotoxicity against human OVCAR3 cells assessed as cell growth at 10^-5 M after 48 hrs by SRB assay; conditions: OVCAR-3, 48 h, read-out: Activity
U-251 = assay: Cytotoxicity against human U251 cells assessed as cell growth at 10^-5 M after 48 hrs by SRB assay; conditions: U-251, 48 h, read-out: Activity
SK-MEL-5 = assay: Cytotoxicity against human SK-MEL-5 cells assessed as cell growth at 10^-5 M after 48 hrs by SRB assay; conditions: SK-MEL-5, 48 h, read-out: Activity
HCT-116 = assay: Cytotoxicity against human HCT116 cells assessed as cell growth at 10^-5 M after 48 hrs by SRB assay; conditions: HCT-116, 48 h, read-out: Activity
HCC 2998 = assay: Cytotoxicity against human HCC2998 cells assessed as cell growth at 10^-5 M after 48 hrs by SRB assay; conditions: HCC 2998, 48 h, read-out: Activity
SN12C = assay: Cytotoxicity against human SN12C cells assessed as cell growth at 10^-5 M after 48 hrs by SRB assay; conditions: read-out: Activity
TK-10 = assay: Cytotoxicity against human TK10 cells assessed as cell growth at 10^-5 M after 48 hrs by SRB assay; conditions: TK-10, 48 h, read-out: Activity
SNB-75 = assay: Cytotoxicity against human SNB75 cells assessed as cell growth at 10^-5 M after 48 hrs by SRB assay; conditions: SNB-75, 48 h, read-out: Activity
MCF7 = assay: Cytotoxicity against human MCF7 cells assessed as cell growth at 10^-5 M after 48 hrs by SRB assay; conditions: MCF7, 48 h, read-out: Activity
NCI-H23 = assay: Cytotoxicity against human NCI-H23 cells assessed as cell growth at 10^-5 M after 48 hrs by SRB assay; conditions: NCI-H23, 48 h, read-out: Activity
RPMI-8226 = assay: Cytotoxicity against human RPMI8226 cells assessed as cell growth at 10^-5 M after 48 hrs by SRB assay; conditions: RPMI-8226, 48 h, read-out: Activity
HCT-15 = assay: Cytotoxicity against human HCT15 cells assessed as cell growth at 10^-5 M after 48 hrs by SRB assay; conditions: HCT-15, 48 h, read-out: Activity
OVCAR-8 = assay: Cytotoxicity against human OVCAR8 cells assessed as cell growth at 10^-5 M after 48 hrs by SRB assay; conditions: OVCAR-8, 48 h, read-out: Activity
COLO 205 = assay: Cytotoxicity against human COLO205 cells assessed as cell growth at 10^-5 M after 48 hrs by SRB assay; conditions: COLO 205, 48 h, read-out: Activity
SF-268 = assay: Cytotoxicity against human SF268 cells assessed as cell growth at 10^-5 M after 48 hrs by SRB assay; conditions: SF-268, 48 h, read-out: Activity
IGROV-1 = assay: Cytotoxicity against human IGROV1 cells assessed as cell growth at 10^-5 M after 48 hrs by SRB assay; conditions: IGROV-1, 48 h, read-out: Activity
CCRF-CEM = assay: Cytotoxicity against human CCRF-CEM cells assessed as cell growth at 10^-5 M after 48 hrs by SRB assay; conditions: read-out: Activity
SK-MEL-28 = assay: Cytotoxicity against human SK-MEL-28 cells assessed as cell growth at 10^-5 M after 48 hrs by SRB assay; conditions: SK-MEL-28, 48 h, read-out: Activity
SK-MEL-2 = assay: Cytotoxicity against human SK-MEL-2 cells assessed as cell growth at 10^-5 M after 48 hrs by SRB assay; conditions: SK-MEL-2, 48 h, read-out: Activity
SR = assay: Cytotoxicity against human SR cells assessed as cell growth at 10^-5 M after 48 hrs by SRB assay; conditions: read-out: Activity
PC-3 = assay: Cytotoxicity against human PC3 cells assessed as cell growth at 10^-5 M after 48 hrs by SRB assay; conditions: PC-3, 48 h, read-out: Activity
SF-295 = assay: Cytotoxicity against human SF295 cells assessed as cell growth at 10^-5 M after 48 hrs by SRB assay; conditions: SF-295, 48 h, read-out: Activity
ACHN = assay: Cytotoxicity against human ACHN cells assessed as cell growth at 10^-5 M after 48 hrs by SRB assay; conditions: read-out: Activity
MDA-MB-231 = assay: Cytotoxicity against human MDA-MB-231 cells assessed as cell growth at 10^-5 M after 48 hrs by SRB assay; conditions: MDA-MB-231, 48 h, read-out: Activity
[2] = Cytotoxicity against human UACC257 cells assessed as cell growth at 10^-5 M after 48 hrs by SRB assay; conditions: UACC-257, 48 h, read-out: Activity
SK-OV-3 = assay: Cytotoxicity against human SKOV3 cells assessed as cell growth at 10^-5 M after 48 hrs by SRB assay; conditions: SK-OV-3, 48 h, read-out: Activity
NCI-H226 = assay: Cytotoxicity against human NCI-H226 cells assessed as cell growth at 10^-5 M after 48 hrs by SRB assay; conditions: NCI-H226, 48 h, read-out: Activity

SMILES	growth at 10 µM (UACC-62) [%]	growth at 10 µM (MDA-MB-468) [%]	growth at 10 µM (A498) [%]	growth at 10 µM (LOX IMVI) [%]	growth at 10 µM (NCI-H322M) [%]	growth at 10 µM (RXF 393) [%]	growth at 10 µM (BT-549) [%]	growth at 10 µM [1] [%]	growth at 10 µM (SF-539) [%]	growth at 10 µM (HOP-92) [%]	growth at 10 µM (OVCAR-3) [%]	growth at 10 µM (U-251) [%]	growth at 10 µM (SK-MEL-5) [%]	growth at 10 µM (HCT-116) [%]	growth at 10 µM (HCC 2998) [%]	growth at 10 µM (SN12C) [%]	growth at 10 µM (TK-10) [%]	growth at 10 µM (SNB-75) [%]	growth at 10 µM (MCF7) [%]	growth at 10 µM (NCI-H23) [%]	other results
C=CCn1c(C)nc2ccc(Nc3nc(Nc4ccc(F)cc4)nc4ccccc34)cc21	-69	-90	42	24	41	-92	21	20	64	-8	30	17	-100	-11	47	11	40	-68	-63	28	growth at 10 µM (RPMI-8226): -43%; growth at 10 µM (HCT-15): 1%; growth at 10 µM (OVCAR-8): 4%; growth at 10 µM (COLO 205): -91%; growth at 10 µM (SF-268): 47%; growth at 10 µM (IGROV-1): 39%; growth at 10 µM (CCRF-CEM): 2%; growth at 10 µM (SK-MEL-28): -91%; growth at 10 µM (SK-MEL-2): 4%; growth at 10 µM (SR): -27%; growth at 10 µM (PC-3): 16%; growth at 10 µM (SF-295): 31.4%; growth at 10 µM (ACHN): -54%; growth at 10 µM (MDA-MB-231): -8%; growth at 10 µM [2]: 66%; growth at 10 µM (SK-OV-3): -74%; growth at 10 µM (NCI-H226): -62%
C=CCn1c(C)nc2ccc(Nc3nc(Sc4ccc(N)cc4)nc4ccccc34)cc21	83.1	106	48.5	97	102	144	87.9	97.8	108	61.1	106	91.3	84.1	93.2	103	93.9	107	98.2	93.2	101	growth at 10 µM (RPMI-8226): 59.8%; growth at 10 µM (HCT-15): 96.5%; growth at 10 µM (OVCAR-8): 63.7%; growth at 10 µM (COLO 205): 121%; growth at 10 µM (SF-268): 109%; growth at 10 µM (IGROV-1): 102%; growth at 10 µM (CCRF-CEM): 65.5%; growth at 10 µM (SK-MEL-28): 104%; growth at 10 µM (SK-MEL-2): 109%; growth at 10 µM (SR): 90.8%; growth at 10 µM (PC-3): 81.1%; growth at 10 µM (SF-295): 77.1%; growth at 10 µM (ACHN): 101%; growth at 10 µM (MDA-MB-231): 80.5%; growth at 10 µM [2]: 110%; growth at 10 µM (SK-OV-3): 124%; growth at 10 µM (NCI-H226): 109%
C=CCn1c(C)nc2ccc(Nc3nc(Nc4ncccn4)nc4ccccc34)cc21	92.6	78.3	76.8	85.3	100	114	82.8	103	103	70.5	99.3	89.8	92.9	94.2	106	97.6	118	78.8	82.4	82.8	growth at 10 µM (RPMI-8226): 70.7%; growth at 10 µM (HCT-15): 111%; growth at 10 µM (OVCAR-8): 94.3%; growth at 10 µM (COLO 205): 102%; growth at 10 µM (SF-268): 94.8%; growth at 10 µM (IGROV-1): 84.1%; growth at 10 µM (CCRF-CEM): 84.8%; growth at 10 µM (SK-MEL-28): 111%; growth at 10 µM (SK-MEL-2): 100%; growth at 10 µM (SR): 121%; growth at 10 µM (PC-3): 89.2%; growth at 10 µM (SF-295): 86.9%; growth at 10 µM (ACHN): 103%; growth at 10 µM (MDA-MB-231): 84.4%; growth at 10 µM [2]: 101%; growth at 10 µM (SK-OV-3): 104%; growth at 10 µM (NCI-H226): 92.2%
C=CCn1c(C)nc2ccc(Nc3nc(NCCO)nc4ccccc34)cc21	92.7	119	78.3	88.5	100	116	96.5	106	104	73.9	98.3	98.5	96.5	94.7	110	87.6	124	92.5	93.7	92.7	growth at 10 µM (RPMI-8226): 95.7%; growth at 10 µM (HCT-15): 113%; growth at 10 µM (OVCAR-8): 99%; growth at 10 µM (COLO 205): 106%; growth at 10 µM (SF-268): 92.5%; growth at 10 µM (IGROV-1): 90.1%; growth at 10 µM (CCRF-CEM): 88.5%; growth at 10 µM (SK-MEL-28): 99.3%; growth at 10 µM (SK-MEL-2): 127%; growth at 10 µM (SR): 104%; growth at 10 µM (PC-3): 93.8%; growth at 10 µM (SF-295): 146%; growth at 10 µM (ACHN): 104%; growth at 10 µM (MDA-MB-231): 84.5%; growth at 10 µM [2]: 100%; growth at 10 µM (SK-OV-3): 109%; growth at 10 µM (NCI-H226): 107%
C=CCn1c(C)nc2cc(Nc3nc(Nc4ccc5nc(C)n(CC=C)c5c4)nc4ccccc34)ccc21	95.8	118	125	93.3	109	124	106	101	98.6	79.8	108	94.4	99.7	98.9	104	96.5	130	90.8	92.4	94.2	growth at 10 µM (RPMI-8226): 98.8%; growth at 10 µM (HCT-15): 107%; growth at 10 µM (OVCAR-8): 98.9%; growth at 10 µM (COLO 205): 108%; growth at 10 µM (SF-268): 113%; growth at 10 µM (IGROV-1): 102%; growth at 10 µM (CCRF-CEM): 94.8%; growth at 10 µM (SK-MEL-28): 106%; growth at 10 µM (SK-MEL-2): 121%; growth at 10 µM (SR): 106%; growth at 10 µM (PC-3): 95.8%; growth at 10 µM (ACHN): 104%; growth at 10 µM (MDA-MB-231): 90%; growth at 10 µM [2]: 102%; growth at 10 µM (SK-OV-3): 104%; growth at 10 µM (NCI-H226): 99.8%
